Literature values, collected in patent publication US20140147381A1, “89ZR COMPOUNDS, TO INCLUDE SOMATOSTATIN, APPARATUS AND PRODUCTS COMPRISING SUCH COMPOUNDS, METHODS OF MAKING SAME, AND METHODS OF USING SAME FOR RADIO IMAGING AND/OR TREATMENT” (priority 2012, published 2014).
Each block holds one compound with its values, some of them ahead of it.

Columns and labels:
[1] = small-animal PET
[2] = system: carcinoid tumors; settings: carcinoid patients
[3] = in vitro

site of accumulation ([1]; free 89Zr(IV) ions): accumulate in the liver
Compound: [Cl][89Zr]([Cl])([Cl])[Cl] [[^89Zr]-chloride]

Compound: Interferon
biochemical response rate [2]: 40%
tumor response rate [2]: 12%

stable with respect to ligand dissociation in human serum [3]: > 7 days
excreted rapidly via the kidneys within [1]: < 20 min
Compound: [^89Zr]-DFO
